Experimental data published in PubChem BioAssay AID1361 (SRMLSC, 2008).
The source made the active and inactive calls. No rule for the calls is given here.

Assay: mitochondrial fusion inhibitors, confirmation, cell-based, chemical genetic, wild-type and mutant (AID 1361)
Conditions: Cell-based mitochondrial fusion phenotype, imaging
[1] = mutant cells, measured here: mutant cell line IC50

In the case of `COC(=O)CCC(=O)COc1ccc(OC)cc1C#N`, the IC50 (WT cells) is reported as > 25 µM (inactive) and the IC50 [1] is reported as over 25 µM.
With `O=c1oc(Nc2cccc(F)c2)nc2ccccc12` the IC50 (WT cells) was > 25 µM (inactive) and the IC50 [1] was over 25 µM.
Compound `Clc1ccc(CNc2nc(CN3CCOCC3)nc3scc(-c4ccccc4)c23)cc1` has an IC50 (WT cells) of 13.2 µM and an IC50 [1] of 17.9 µM.
For `COCCCNC(=O)c1cccc(C(=O)NCCCOC)c1`, the IC50 (WT cells) was > 25 µM (inactive) and the IC50 [1] was over 25 µM.
In the case of `CC(C)(C)n1nnnc1C(c1ccc(F)cc1)N(Cc1ccc(F)cc1)Cc1ccco1` (configuration not stated), the IC50 (WT cells) is reported as 14.6 µM and the IC50 [1] is reported as over 25 µM.
Compound `O=C(c1cnc(-c2ccc(Cl)cc2)s1)c1ccc(Cl)cc1Cl` has an IC50 (WT cells) of 14.6 µM and an IC50 [1] of over 25 µM.
In the case of `CC(C)=C1C2CCC1C(C(=O)Nc1sc(C)c(-c3ccc(C(C)C)cc3)c1C(N)=O)C2C(=O)O` (configuration not stated), the IC50 (WT cells) is reported as 20.8 µM and the IC50 [1] is reported as over 25 µM.
For `C/C(=N\Nc1nc(N2CCCCCC2)nc(N2CCCCCC2)n1)c1ccccc1`, the IC50 (WT cells) was 12.6 µM and the IC50 [1] was over 25 µM.
With `CC(C)COC(=O)c1cccc2c1-c1ccccc1/C2=N\O` the IC50 (WT cells) was > 25 µM (inactive) and the IC50 [1] was over 25 µM.
`O=C(COC(=O)Cc1c(Cl)cccc1Cl)Nc1ccccc1-c1ccccc1` gave an IC50 (WT cells) of 13.3 µM and an IC50 [1] of over 25 µM.
For `CC(C(=O)Nc1ccc(Cl)cc1Cl)N1CC=C(c2ccccc2)CC1` (configuration not stated), the IC50 (WT cells) was 8.63 µM and the IC50 [1] was 13.3 µM.
`CC(C)OC(=O)C(C(=O)C(F)(F)F)c1cc(NS(=O)(=O)c2ccc3ccccc3c2)c2ccccc2c1O` (configuration not stated) gave an IC50 (WT cells) of 15.1 µM and an IC50 [1] of over 25 µM.
`CC(NC(=O)COc1ccccc1-c1ccccc1)c1ccccc1` (configuration not stated) gave an IC50 (WT cells) of 15 µM and an IC50 [1] of over 25 µM.
In the case of `CSC(=S)N/N=C/c1c[nH]c2ccccc12`, the IC50 (WT cells) is reported as 7.53 µM and the IC50 [1] is reported as 11.2 µM.
For `C=CCC(C(=O)OC)(C(=O)OC)c1ccc([N+](=O)[O-])cn1`, the IC50 (WT cells) was > 25 µM (inactive) and the IC50 [1] was over 25 µM.
`CC1(C)CC(C(CCN(Cc2ccccc2)C(=O)c2ccco2)c2ccc(F)cc2)CCO1` (configuration not stated) gave an IC50 (WT cells) of 16.8 µM and an IC50 [1] of over 25 µM.
In the case of `NC(=S)N/N=C/c1ccccc1OCCSc1ccc(Cl)cc1`, the IC50 (WT cells) is reported as 6.86 µM and the IC50 [1] is reported as 12 µM.
With `Cc1ccccc1NS(=O)(=O)c1cc(C(=O)N2CCc3ccccc3C2)ccc1C` the IC50 (WT cells) was > 25 µM (inactive) and the IC50 [1] was over 25 µM.
In the case of `CCCCCOc1ccc(CSCCNC(=S)Nc2ccccc2)cc1`, the IC50 (WT cells) is reported as 5.86 µM and the IC50 [1] is reported as over 25 µM.
In the case of `Cn1c(Oc2ccc3c(c2)OCO3)nc2c1c(=O)n(Cc1ccccc1)c(=O)n2C`, the IC50 (WT cells) is reported as > 25 µM (inactive) and the IC50 [1] is reported as over 25 µM.
With `O=C(CNCc1ccccc1Cl)Nc1ccccc1N1CCCCC1` the IC50 (WT cells) was 13.2 µM and the IC50 [1] was over 25 µM.
In the case of `CCCC(NC(=S)NCC1CCCO1)C12CC3CC(CC(C3)C1)C2` (configuration not stated), the IC50 (WT cells) is reported as 7.52 µM and the IC50 [1] is reported as over 25 µM.
`CC(=O)N(C)c1ccc(OCC(O)Cn2c3ccc(Cl)cc3c3cc(Cl)ccc32)cc1` (configuration not stated) showed an IC50 (WT cells) of 4.12 µM and an IC50 [1] of over 25 µM.
Compound `COc1ccccc1N1CCN(C(=O)c2oc3cc(C)cc(C)c3c2C)CC1` has an IC50 (WT cells) of 23.9 µM and an IC50 [1] of over 25 µM.
In the case of `O=C(CS(=O)(=O)Cc1ccccc1)Nc1cccnc1`, the IC50 (WT cells) is reported as > 25 µM (inactive) and the IC50 [1] is reported as over 25 µM.
Work on `CCCCSc1cnn(-c2ccccc2)c(=O)c1SCCCC` yielded an IC50 (WT cells) of 12.7 µM and an IC50 [1] of over 25 µM.
Work on `O=C(Nc1cc(S(=O)(=O)N2CCCCC2)ccc1Cl)c1ccccc1NS(=O)(=O)c1ccc(F)cc1` yielded an IC50 (WT cells) of 23.4 µM and an IC50 [1] of over 25 µM.
Compound `Cc1[nH]c2ccccc2c1/C=N/NC(=O)C1CC1(c1ccccc1)c1ccccc1` (configuration not stated) has an IC50 (WT cells) of 7.93 µM and an IC50 [1] of over 25 µM.
In the case of `O=C(N/C=N/OCc1ccc(Cl)cc1Cl)NOCc1ncc(C(F)(F)F)cc1Cl`, the IC50 (WT cells) is reported as 16 µM and the IC50 [1] is reported as over 25 µM.
In the case of `COc1ccccc1NC(=O)COC(=O)c1ccc([N+](=O)[O-])s1`, the IC50 (WT cells) is reported as 6.09 µM and the IC50 [1] is reported as 19.4 µM.
For `Cc1cccc(-n2c(-c3csc4ccccc34)n[nH]c2=S)c1`, the IC50 (WT cells) was > 25 µM (inactive) and the IC50 [1] was over 25 µM.
With `CCCN(CCC)C(=O)CC(c1ccccc1)c1cc(Br)ccc1O` (configuration not stated) the IC50 (WT cells) was 13.7 µM and the IC50 [1] was over 25 µM.
In the case of `COc1ccc(C2=Nc3cccc4cccc(c34)N2)cc1`, the IC50 (WT cells) is reported as > 25 µM (inactive) and the IC50 [1] is reported as over 25 µM.
For `O=C(NCC1(c2ccccc2)CCCC1)C1(c2ccccc2)CCCC1`, the IC50 (WT cells) was 16.8 µM and the IC50 [1] was over 25 µM.
For `COc1ccccc1-c1cc(C(F)(F)F)nc(NCc2cccs2)n1`, the IC50 (WT cells) was 11.2 µM and the IC50 [1] was over 25 µM.
`CCOc1ccccc1N1CCN(C(=S)NC(=O)C23CC4CC(CC(C4)C2)C3)CC1` showed an IC50 (WT cells) of 19.5 µM and an IC50 [1] of 22.5 µM.
In the case of `FC(F)(F)c1ccc(Oc2ccc3ccccc3c2Br)nc1`, the IC50 (WT cells) is reported as > 25 µM (inactive) and the IC50 [1] is reported as over 12.5 µM.
`COc1ccc(NC(=S)NNC(=O)COc2ccc(Cl)cc2Cl)cc1` showed an IC50 (WT cells) of 19.5 µM and an IC50 [1] of over 25 µM.
In the case of `CC1=CC(C)(C)N(C(=O)c2ccc(F)cc2)c2cc3c(cc21)OCO3`, the IC50 (WT cells) is reported as > 25 µM (inactive) and the IC50 [1] is reported as over 12.5 µM.
For `OCCN(CCO)CC(O)COc1ccc(C23CC4CC(CC(C4)C2)C3)cc1` (configuration not stated), the IC50 (WT cells) was > 25 µM (inactive) and the IC50 [1] was over 25 µM.
With `COc1ccc(Cc2nn[nH]n2)cc1` the IC50 (WT cells) was > 25 µM (inactive) and the IC50 [1] was over 25 µM.
Work on `Cc1cccc(N2CCN(C(c3ccccc3)c3nnnn3C(C)(C)C)CC2)c1C` (configuration not stated) yielded an IC50 (WT cells) of 9.14 µM and an IC50 [1] of over 25 µM.
In the case of `CCOC(=O)c1sc(NC(=O)/C=C/c2cnn(C)c2C)c(C(=O)OC(C)C)c1C`, the IC50 (WT cells) is reported as > 25 µM (inactive) and the IC50 [1] is reported as over 25 µM.
With `COc1ccc(OC)c(-c2cc(C3CCN(c4cc(Cl)nc(N)n4)CC3)[nH]n2)c1` the IC50 (WT cells) was > 25 µM (inactive) and the IC50 [1] was over 25 µM.
For `C(=N\Nc1nc(Nc2ccccc2)nc(Nc2ccccc2)n1)/c1cccnc1`, the IC50 (WT cells) was 20.9 µM and the IC50 [1] was over 25 µM.
For `CC/C(=C(/CC)c1ccc(O)cc1)c1ccc(O)cc1`, the IC50 (WT cells) was 23.8 µM and the IC50 [1] was over 25 µM.
For `COc1ccc(-c2nnc(SCC(=O)c3cccs3)o2)c(OC)c1`, the IC50 (WT cells) was > 25 µM (inactive) and the IC50 [1] was over 25 µM.
With `O=c1cc(-c2ccc(C3CCCCC3)cc2)[nH][nH]1` the IC50 (WT cells) was > 25 µM (inactive) and the IC50 [1] was over 25 µM.
For `Cc1cc(C)c2nc(C(F)(F)F)nc(N3CC(C)OC(C)C3)c2c1` (configuration not stated), the IC50 (WT cells) was > 25 µM (inactive) and the IC50 [1] was over 25 µM.
Compound `COCCNC(=S)N(CCc1c(C)[nH]c2ccc(Cl)cc12)Cc1cccs1` has an IC50 (WT cells) of 8.8 µM and an IC50 [1] of over 25 µM.
`CCC(C)c1ccc(NC(=O)COc2c(F)c(F)c(C(F)(F)F)c(F)c2F)cc1` (configuration not stated) showed an IC50 (WT cells) of 8.03 µM and an IC50 [1] of over 25 µM.
With `Clc1ccc(CSc2nnc(-c3ccncc3)o2)c(Cl)c1` the IC50 (WT cells) was > 25 µM (inactive) and the IC50 [1] was over 25 µM.
In the case of `Clc1ccc(-c2csc3ncnc(N4CCc5ccccc5C4)c23)cc1`, the IC50 (WT cells) is reported as 10 µM and the IC50 [1] is reported as over 25 µM.
Compound `COc1ccc(/C=C/C(=O)c2ccc(O)cc2)cc1COc1ccc(F)cc1` has an IC50 (WT cells) of 11.9 µM and an IC50 [1] of over 25 µM.
In the case of `COc1cccc(N2C(=O)C(c3ccccc3)=C(c3nc4ccccc4s3)C2NC(C)=O)c1` (configuration not stated), the IC50 (WT cells) is reported as > 25 µM (inactive) and the IC50 [1] is reported as over 25 µM.
In the case of `CCCOc1ccc(C2C(C(=O)c3ccco3)=C(O)C(=O)N2CCN2CCOCC2)cc1OC` (configuration not stated), the IC50 (WT cells) is reported as > 25 µM (inactive) and the IC50 [1] is reported as over 25 µM.
In the case of `O=C(CSc1nnc2scc(-c3ccccc3)n12)Nc1ccc2c(c1)OCCO2`, the IC50 (WT cells) is reported as > 25 µM (inactive) and the IC50 [1] is reported as over 25 µM.
With `Cc1cc(N2C(=O)C=CC2=O)c([N+](=O)[O-])cc1C` the IC50 (WT cells) was > 25 µM (inactive) and the IC50 [1] was over 25 µM.
With `O=C(NCC(c1cccnc1)N1CCOCC1)c1ccco1` (configuration not stated) the IC50 (WT cells) was > 25 µM (inactive) and the IC50 [1] was over 25 µM.
`COc1cc(/C=C2\SC(=O)N(c3ccccc3Cl)C2=O)cc([N+](=O)[O-])c1O` showed an IC50 (WT cells) of 13.6 µM and an IC50 [1] of 20.8 µM.
For `CCN=c1scc(-c2ccco2)n1/N=C/c1ccc(OC)c(O)c1`, the IC50 (WT cells) was > 25 µM (inactive) and the IC50 [1] was over 25 µM.
